Laboratory results: patent US20160153997A1, “OLIGOPEPTIDE SPECIFIC TO COLORECTAL CANCER CELL AND APPLICATION THEREOF” (National Tsing Hua University, priority 2014, published 2016)
Where “and” joins values, the source holds several entries; their conditions need not be identical. Identical values can stand only once.

Key:
Assay in all cases: Capturing ability analysis, peptide-bonded magnetic beads mixed with cells
Assay type in all cases: cell-based
[1] = system: human hepatoma cells (HepG2); details: human hepatoma cell (HepG2); 2×10^5 cells, room temperature, 25 rpm 30 minutes
Description: (§1) In one embodiment, the peptide sequences of Seq ID: NO. 1 to Seq ID: NO. 3 are respectively bonded to the beads and mixed with different cell lines , respectively, including colorectal cancer cells (HCT-8), colorectal cancer stem cells (CR-CSC), human hepatoma cells (HepG2), human in situ pancreatic cancer cells (BxPC-3), human lung adenocarcinoma cells (A549) and human breast cancer cells (MCF7). Wherein, the beads having peptide sequences are mixed with each cell line at room temperature for 25 rpm 30 minutes, and the cell number of each cell line is 2×10^5. After washing for several times, the number of cells captured with magnetic beads having the above peptide sequences are calculated and the results are shown as Table 1 below.

[2] = system: human lung adenocarcinoma cells (A549); details: human lung adenocarcinoma cell (A549); 2×10^5 cells, room temperature, 25 rpm 30 minutes
Description: as §1

[3] = system: colorectal cancer cells (HCT-8); details: colorectal cancer cell (HCT-8); 2×10^5 cells, room temperature, 25 rpm 30 minutes
Description: as §1

[4] = system: human in situ pancreatic cancer cells (BxPC-3); details: human in situ pancreatic cancer cell (BxPC-3); 2×10^5 cells, room temperature, 25 rpm 30 minutes
Description: as §1

[5] = system: human breast cancer cells (MCF7); details: human breast cancer cell (MCF7); 2×10^5 cells, room temperature, 25 rpm 30 minutes
Description: as §1

[6] = system: colorectal cancer stem cells (CR-CSC); details: colorectal cancer stem cell (CR-CSC); 2×10^5 cells, room temperature, 25 rpm 30 minutes
Description: as §1

Row | Substance | Capturing ability (%) [1] [%] | Capturing ability (%) [2] [%] | Capturing ability (%) [3] | Capturing ability (%) [4] [%] | Capturing ability (%) [5] [%] | Capturing ability (%) [6]
1 | Seq ID: NO. 1: peptide sequence screened from M13 phage display peptide library, having binding specificity and affinity to HCT-8 or CR-CSC (AELAKLPLF) | 23.60 ± 3.50 | 28.51 ± 7.09 | 43.30% and 43.40 ± 7.23% | 3.41 ± 1.14 | 12.84 ± 7.67 | 22.97 ± 4.29%
2 | Seq ID: NO. 2: peptide sequence screened from M13 phage display peptide library, having binding specificity and affinity to HCT-8 or CR-CSC (GAISFDHVHP) | 23.02 ± 2.77 | 34.29 ± 5.22 | 45.16% and 45.16 ± 7.12% | 3.13 ± 0.62 | 20.45 ± 4.04 | 20.85 ± 0.61%
3 | Seq ID: NO. 3: peptide sequence screened from M13 phage display peptide library, having binding specificity and affinity to HCT-8 or CR-CSC (MNAKWPIENLMN) | 17.87 ± 6.18 | 16.77 ± 6.49 | 9.42 ± 2.67% | 3.58 ± 1.18 | 10.68 ± 5.08 | 49.79% and 49.79 ± 5.34%
